Assay: relative stability of the polymorphic forms (crystallisation and slurry interconversion experiments)
Type: physicochemical
Conditions: stated as 'believed to be'
Procedure: Thus in general, without wishing to be bound by theory, slower processes will favor the production of Form B. For example, slow addition of solvent, slow cooling rate and/or mixing will tend to favor the production of Form B, whereas fast solvent addition, fast cooling and/or minimal mixing time will favor production of Form A.
A mixture of 3-amino-1-propanesulfonic acid form A (0.7654 g) and form B (0.7880 g) were added to ethanol (5 mL) and water (1.25 mL) in a flask. The slurry was placed in a water bath at 5° C. and stirred for four hours. Solids were collected by vacuum filtration to afford form B.

Structure (SMILES)	kinetic preference of the polymorphic form (generated from fast timescale experiments)	thermodynamic stability of the polymorphic form (between about 5 and about 60° C.)
NCCCS(=O)(=O)O [Form A, 3-amino-1-propanesulfonic acid]	kinetically favored form	
NCCCS(=O)(=O)O [Form B, 3-amino-1-propanesulfonic acid]		more thermodynamically stable form
